This note sets out measurements from patent US20060293223A1 (Eli Lilly and Company Patent Division, priority 2003, published 2006).

Positions of bridges follow the written chain, without caps; N, C: chain ends. Non-standard residues stand in square brackets, D forms with d. hCys = N[C@@H](CCS)C(=O)O

For the test, the system named is MC1/MC4. To be noted: ratio MC1/MC4.
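Also: ratio of EC50 values obtained at MC1 versus MC4 receptors, with MC1 potency measured by luciferase reporter activity in stably transfected cells expressing human MC1.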

For “3-(4-hydroxyphenyl)propionyl-Arg-cyclo[Cys-Glu-His-D-Phe-Arg-Trp-Cys]-NH2 [Compound 66]”, the MC1/MC4 selectivity was determined as 13.23.
To “3-(4-methylbenzoyl)propionyl-Arg-cyclo[Cys-Glu-His-D-Phe-Arg-Trp-Cys]-NH2 [Compound 67]” belongs 9.15.
As for “3-guanidinopropionyl-cyclo[Cys-Glu-His-D-Phe-Arg-Trp-Cys]-NH2 [Compound 40]”, the MC1/MC4 selectivity was 25.92.
In the case of “3-guanidinopropionyl-cyclo[hCys-His-D-Phe-Arg-Trp-Cys]-NH2 [Compound 148]”, the MC1/MC4 selectivity was 51.98.
Regarding “4-guanidinobutyryl-cyclo[Cys-Glu-His-D-Phe-Arg-Trp-Cys]-NH2 [Compound 41]”, the MC1/MC4 selectivity came to 58.47.
With “4-phenylbutyryl-cyclo[hCys-His-D-Phe-Arg-Trp-Cys]-NH2 [Compound 147]”, the MC1/MC4 selectivity is 0.86.
On to “4-phenylbutyryl-cyclo[hCys-His-D-Phe-Arg-Trp-penicillamine]-NH2 [Compound 174]”, for which the MC1/MC4 selectivity was 4.98.
To “5-guanidinovaleryl-cyclo[Cys-Glu-His-D-Phe-Arg-Trp-Cys]-NH2 [Compound 42]” belongs 44.63; to “5-guanidinovaleryl-cyclo[hCys-His-D-Phe-Arg-Trp-Cys]-NH2 [Compound 149]”, 51.85.
To “Ac-Arg-cyclo[Cys-Cya-His-D-Phe-Arg-Trp-Cys]-NH2 [Compound 26]” belongs 38.90; to “Ac-Arg-cyclo[Cys-Glu-(1-Me-His)-(4-Cl-D-Phe)-Arg-Trp-Cys]-NH2 [Compound 87]”, 316.25.
Next, “Ac-Arg-cyclo[Cys-Glu-(1-Me-His)-D-Phe-Arg-Trp-Cys]-NH2 [Compound 51]”: 76.75; “Ac-Arg-cyclo[Cys-Glu-His-(4-Cl-D-Phe)-Arg-Trp-Cys]-NH2 [Compound 50]”: 36.10; “Ac-Arg-cyclo[Cys-Glu-His-D-Phe-Arg-Trp-Cys]-NH2 [Compound 48]”: 26.80.
Consider “Ac-Arg-cyclo[Cys-Glu-His-D-Phe-Arg-Trp-Cys]-OH [Compound 49]”, for which the MC1/MC4 selectivity is recorded as 35.35.
To “Ac-Arg-cyclo[Cys-His-(4-Cl-D-Phe)-Arg-Trp-hCys]-NH2 [Compound 191]” belongs 127.33; to “Ac-Arg-cyclo[Cys-His-(4-F-D-Phe)-Arg-Trp-hCys]-NH2 [Compound 190]”, 367.10.
To “Ac-CDH[dF]RWC-NH2 (disulfide 1-7) [Compound 6]” belongs 35.74; to “Ac-CEH[dF]RWCKP-NH2 (disulfide 1-7) [Compound 35]”, 1.17; to “Ac-CEH[dF]RWCSP-NH2 (disulfide 1-7) [Compound 36]”, 1.22.
Turning to “Ac-CH[dF]RWC-NH2 (disulfide 1-6) [Compound 1]”, the MC1/MC4 selectivity amounted to 3.91.
To “Ac-CKH[dF]RWC-NH2 (disulfide 1-7) [Compound 16]” belongs 2.94; to “Ac-CLH[dF]RWC-NH2 (disulfide 1-7) [Compound 15]”, 14.75; to “Ac-CQH[dF]RWC-NH2 (disulfide 1-7) [Compound 8]”, 3.33.
Next, “Ac-Cit-cyclo[Cys-Glu-(1-Me-His)-D-Phe-Arg-Trp-Cys]-NH2 [Compound 56]”: 21.38; “Ac-Cit-cyclo[Cys-Glu-His-D-Phe-Arg-Trp-Cys]-NH2 [Compound 55]”: 28.81; “Ac-D-Arg-cyclo[Cys-Cya-His-D-Phe-Arg-Trp-Cys]-NH2 [Compound 27]”: 30.11.
As to “Ac-D-Arg-cyclo[Cys-Glu-His-D-Phe-Arg-Trp-Cys]-NH2 [Compound 52]”, the MC1/MC4 selectivity is 30.54.
To “Ac-KCEH[dF]RWC-NH2 (disulfide 2-8) [Compound 58]” belongs 31.69; to “Ac-LCEH[dF]RWC-NH2 (disulfide 2-8) [Compound 57]”, 29.00.
With “Ac-Lys(ipr)-cyclo[Cys-Glu-His-D-Phe-Arg-Trp-Cys]-NH2 [Compound 59]”, the MC1/MC4 selectivity is reported as 20.92.
To “Ac-Orn-cyclo[Cys-Glu-His-D-Phe-Arg-Trp-Cys]-NH2 [Compound 62]” belongs 46.91; to “Ac-RCH[dF]RW[hCys]-NH2 (disulfide 2-7) [Compound 189]”, 23.31; to “Ac-R[hCys]H[dF]RWC-NH2 (disulfide 2-7) [Compound 158]”, 50.25.
On to “Ac-R[hCys]H[dF]RWC-OH (disulfide 2-7) [Compound 159]”, for which the MC1/MC4 selectivity is given as 49.41.
Take “Ac-Tyr-(1-β-hArg)-cyclo[Cys-Glu-His-D-Phe-Arg-Trp-Cys]-NH2 [Compound 127]”: the MC1/MC4 selectivity stood at 20.25.
To “Ac-Tyr-Arg-cyclo[Cys-Cya-His-D-Phe-Arg-Trp-Cys]-NH2 [Compound 28]” belongs 26.35; to “Ac-Tyr-Arg-cyclo[Cys-Glu-(1-Bom-His)-D-Phe-Arg-Trp-Cys]-NH2 [Compound 101]”, 0.97.
Next, “Ac-Tyr-Arg-cyclo[Cys-Glu-(1-Me-D-His)-(4-Br-D-Phe)-Arg-Trp-Cys]-NH2 [Compound 91]”: 21.14; “Ac-Tyr-Arg-cyclo[Cys-Glu-(1-Me-D-His)-(4-Cl-D-Phe)-Arg-Trp-Cys]-NH2 [Compound 88]”: 9.07; “Ac-Tyr-Arg-cyclo[Cys-Glu-(1-Me-D-His)-(4-F-D-Phe)-Arg-Trp-Cys]-NH2 [Compound 85]”: 2.66.
For the substance “Ac-Tyr-Arg-cyclo[Cys-Glu-(1-Me-D-His)-(4-OMe-D-Phe)-Arg-Trp-Cys]-NH2 [Compound 95]”, the MC1/MC4 selectivity was found to be 3.21.
On to “Ac-Tyr-Arg-cyclo[Cys-Glu-(1-Me-D-His)-D-Phe-Arg-Trp-Cys]-NH2 [Compound 82]”, for which the MC1/MC4 selectivity is on record as 1.66.
Turning to “Ac-Tyr-Arg-cyclo[Cys-Glu-(1-Me-His)-(4-Br-D-Phe)-Arg-Trp-Cys]-NH2 [Compound 90]”, the MC1/MC4 selectivity was 237.22.
To “Ac-Tyr-Arg-cyclo[Cys-Glu-(1-Me-His)-(4-F-D-Phe)-Arg-Trp-Cys]-NH2 [Compound 84]” belongs 150.60; to “Ac-Tyr-Arg-cyclo[Cys-Glu-(1-Me-His)-(4-OMe-D-Phe)-Arg-Trp-Cys]-NH2 [Compound 94]”, 16.97; to “Ac-Tyr-Arg-cyclo[Cys-Glu-(1-Me-His)-D-Phe-Arg-Trp-Cys]-NH2 [Compound 81]”, 101.69.
As to “Ac-Tyr-Arg-cyclo[Cys-Glu-(1-benzyl-D-His)-D-Phe-Arg-Trp-Cys]-NH2 [Compound 100]”, the MC1/MC4 selectivity worked out at 1.67.
Next, “Ac-Tyr-Arg-cyclo[Cys-Glu-(1-benzyl-His)-D-Phe-Arg-Trp-Cys]-NH2 [Compound 99]”: 88.42; “Ac-Tyr-Arg-cyclo[Cys-Glu-(1-pyrazolyl-Ala)-D-Phe-Arg-Trp-Cys]-NH2 [Compound 102]”: 4.76.
